In series [1] the test system is Ppargc1a. The protocol:
To induce symptoms of PD, MPTP (20 mg/kg) was administered intraperitoneally in sterile PBS 4 times at 2-hour intervals on day 1. […] Log-rank test was used for statistical analysis.
Ppargc1a, an inducer of mitochondrial biogenesis, is widely expressed in cells throughout the body.
For protein expression studies, animals were sacrificed on Day 4, 24 hours after the 3rd oral dosage of ZLN005 and PBS-perfused brain tissues were digested with Collagenase IV, processed for microglia isolation by flow cytometry (Ginhoux et al Science, 330:841-5, 2010), and immunoblot analysis of Ppargc1a expression.

Series [2] concerns microglia. The series is described as follows: Microglial metabolic phenotyping in MPTP-treated animals (Slc2a1 flow cytometry, ex vivo lactic acid production). On the set-up: species or system mice. As to conditions: 3 oral doses. The source says:
For measuring microglial expression of glucose transporter Slc2a1, MPTP-ZLN (n=10), MPTP-Ctrl (n=14), and Veh animals (n=14) were sacrificed. Brain microglia were phenotyped with antibody directed against glucose transporter Slc2a1 (RnD) for flow cytometric acquisition (LSRII, BD) and analysis (FlowJo). For measuring microglial glycolysis, MPTP-ZLN (n=8), MPTP-Ctrl (n=6), and Veh animals (n=6) were sacrificed. Microglia were sorted by flow cytometry and subjected to lactic acid production assays ex vivo (Cayman Chem) for glycolysis measurement. Y-axis represents Slc2a1 expression in median fluorescence units (MFI, A) and lactic acid production in micromolar units ([…], B). […] ANOVA was used for statistical analyses.

Series [3] deals with microglia. The series can be described thus: Ex vivo TNF-α production by microglia from MPTP-treated FF and Cre animals. The format is in vivo, mice. As to conditions: 2-hour ex vivo assay, Day 4. As for the experimental part: Animals with microglia-specific deletion of Ppargc1a were generated by crossing mice harboring the foxed allele of Ppargc1a (Ppargc1a^LoxP/LoxP) with those expressing Tamoxifen inducible Cre recombinase under the control of Cx3cr1 promoter (Cx3cr1^CreER). To induce Cre-mediated deletion of Ppargc1a in Cx3cr1 expressing cells, Tamoxifen (Sigma) in 200 μl corn oil (50 mg/ml, Sigma) was administered to 3 weeks old (Ppargc1a^LoxP/LoxPCx3cr1^CreER) mice twice at 48-hour intervals (Wolf et al Front Cell Neurosci 2013, 18;7:26. doi: 10.3389/fnce1.2013.00026). Littermates carrying the foxed allele of Ppargc1a alleles but lacking expression of Cre recombinase (Ppargc1a^LoxP/LoxP) were used as controls. Animals were rested for another 5-6 weeks before MPTP was administered. Animals with microglia-specific deletion of Ppargc1a and controls were generated as described in Example 1. […] PBS-perfused brain tissues of sacrificed animals were digested with Collagenase IV and isolated by flow cytometry. For measuring microglial production of TNF-α, MPTP-ZLN (n=5), MPTP-Ctrl (n=10) and Veh (n=6) animals were sacrificed. Isolated microglia were subjected to a 2-hour ex vivo TNF-α production assay. Supernatant samples were collected for TNF-α measurement with CBA technology (BD). […] Unpaired t-tests were used for statistical analyses.

Series [4] has as its system MPTP-treated animals. The series is described as follows: Wheel-running test in MPTP model of PD. It is filed as in vivo, mice. The following applies: 25 mg/kg orally 7 days, accelerating speed 5-15 rpm, Day 8. As for the experimental part:
The wheel-running test has been widely used as one of the most reliable measurements of behavioral dysfunction in animal models of neurodegeneration ([…] et al, Behav Brain Res, 125:109-25, 2001). In this study, animals were trained to run on a treadmill at specific speed and training duration before undergoing a formal test of motor skills. Motor performance of animals was evaluated by the time (seconds) that they remained running on the treadmill, which required motor coordination and strength. […] Animals with microglia-specific deletion of Ppargc1a were generated as described in Example 1. At 7 weeks of age, these animals were subjected to 1.5 weeks of training on a treadmill at a constant speed 10 rpm (rotations per minute) and then 1.5 weeks of training at an accelerating speed from 5-15 rpm. After the training period at 10 weeks of age, animals were treated with MPTP and tested for motor performance at an accelerating speed from 5-15 rpm. […] Unpaired t-tests were used for statistical analyses.

Series [5] concerns ALS transgenic mice. The series is described as follows: Wheel-running test in ALS transgenic animals. The following applies: 25 mg/kg orally 3 times a week for 4 weeks from 9 weeks of age. It is filed as in vivo. As for the experimental part:
ALS transgenic mice were orally treated 3 times a week for 4 weeks with 0.5% methylcellulose or ZLN005 (Sigma) at 25 mg/kg in 0.5% methylcellulose, starting at 9 weeks of age. A wheel-running test was performed similarly to that described in Example 8. The animals started training at 13 weeks of age for 1.5 weeks of training on a treadmill at a constant speed of 10 rpm and then for 1.5 weeks of training at an accelerating speed from 5-15 rpm. After the training period at 14.5 and 16 weeks of age, animals were tested for motor performance at a constant speed and at an accelerating speed, respectively. […] Unpaired t-tests were used for statistical analyses.

Series [6] deals with CD45hi CD11b+F4/80+brain perivascular macrophages. The series can be described thus: Frequency of brain perivascular macrophages in ALS transgenic animals. It is filed as in vivo, mice. The following applies: 25 mg/kg orally 3 times a week for 8 weeks, 13 weeks of age. As for the experimental part: ALS transgenic animals were orally treated 3 times a week for 8 weeks with 0.5% methylcellulose or ZLN005 (Sigma) at 25 mg/kg in 0.5% methylcellulose, starting at 5 weeks of age. For measuring the frequency of CD45hi CD11b+F4/80+brain perivascular macrophages, ALS-Ctrl (n=13), ALS-ZLN (n=17), and WT animals (n=17) were sacrificed at 13 weeks of age. PBS-perfused brain tissues of sacrificed animals were digested with Collagenase IV and processed for flow cytometry. The results are summarized in FIG. 19; Y-axis represents % of brain perivascular macrophages among total brain immune cells in the brain. […] ANOVA was used for statistical analysis.

For series [7], the system named is CD115+CD11b+blood monocytes. The series is described as follows: Systemic inflammation in ALS transgenic animals (blood monocytes, serum TNF-α ELISA). As to conditions: 25 mg/kg orally 3 times a week for 8 weeks. The format is in vivo, mice. The protocol:
ALS transgenic animals were orally treated 3 times a week for 8 weeks with 0.5% methylcellulose or ZLN005 (Sigma) at 25 mg/kg in 0.5% methylcellulose, starting at 5 weeks of age. For measuring the frequency of CD115+CD11b+blood monocytes, ALS-Ctrl transgenic animals (n=10), ALS-ZLN (n=10), and WT animal (n=10) were sacrificed at 13 weeks of age. The Y-axis in FIGS. 21A and 21B represents % of total monocytes and % of Ly6C+ inflammatory monocytes among circulating immune cells.
In general terms: ELISA stands for enzyme-linked immunosorbent assay.

Take `CC(C)(C)c1ccc(-c2nc3ccccc3[nH]2)cc1` [ZLN005, 2-(4-tert-butylphenyl)-1H-benzimidazole]: the “Ppargc1a protein expression in microglia” value in series [1] (MPTP-treated animals, 25 mg/kg orally, 3 doses, Day 4) is “enhanced Ppargc1a protein expression in microglia”. The blood-brain barrier penetration result in series [1] (mouse, in vivo, po, 25 mg/kg) is on record as “penetrated the blood-brain barrier”. For the same molecule, in series [2] (Day 4, ex vivo, vs MPTP-Ctrl), the “lactic acid production in microglia” value is “decreased”. The “glucose transporter Slc2a1 expression in microglia” value in series [2] (Day 4, vs MPTP-Ctrl) is given as “decreased”. The figures for the “TNF-α production in microglia” value in series [3] (MPTP-treated Cre animals (microglial Ppargc1a deletion)) and in series [3] (MPTP-treated FF animals) were “failed to exert its anti-inflammatory effects” and “suppressed TNF-α production”, respectively. Further, the “latency to fall, wheel running” value in series [4] (MPTP-treated Cre animals) was “not present in Cre animals”; in series [4] (MPTP-treated FF animals), “performed significantly better than vehicle treated mice”. The latency to fall in series [5] (accelerating speed 5-15 rpm, 16 weeks of age) stood at 243.7 s; in series [5] (constant speed 10 rpm, 14.5 weeks of age), 296.3 s. Also, the “percentage of brain perivascular macrophages among total brain immune cells” value in series [6] is recorded as “decreased”. Besides, in series [7] (13 weeks of age), the “% of Ly6C+ inflammatory monocytes among circulating immune cells” value is “decreased”. For the same molecule, the “% of total monocytes among circulating immune cells” value in series [7] (13 weeks of age) was “decreased”. The “serum levels of TNF-α” value in series [7] (ELISA) was “significantly suppressed”.

Source of the values: US10966962B2, “Method for treating neurodegenerative diseases” (THE BOARD OF TRUSTEES OF THE LELAND STANFORD JUNIOR …, priority 2014, dated 2021).
